# Laboratory results: patent publication US9980943B2, “Methods of treating muscular dystrophy” (BOARD OF REGENTS OF THE NEVADA SYSTEM OF HIGHER EDUCATION, …, priority 2013, dated 2018)
# Key:
# Assay type in all cases: cell-based, mouse
# [1] = test system: α7 integrin (LacZ reporter in α7βgal+/− myoblasts); assay: Myoblast α7+/LacZ integrin FDG assay (Burkin assay in myoblasts, 96-well); conditions: 96-well; for Burkin Assay in Myoblasts, value relative to DMSO: SU9516 analogs, N=3-6; for Burkin Assay in Myoblasts, signal relative to DMSO: α7+/LacZ myoblasts
# [2] = test system: α7 integrin (LacZ reporter in α7+/LacZ myotubes); assay: Myotube α7 integrin FDG assay (Burkin assay in myotubes, 96-well); conditions: for Burkin Assay in Myotubes, value relative to DMSO: SU9516 analogs, 96-well, N=3-6
# [3] = test system: β-galactosidase in CMV-LacZ C2C12 myoblasts; assay: CMV-LacZ secondary screen in C2C12 myoblasts (β-Gal stabilizing assay); conditions: for CMV-LACZ in Myoblasts, value relative to DMSO: SU9516 analogs, C2C12 CMV-LacZ, N=2; for CMV-LACZ in Myoblasts (β-galactosidase activity relative to DMSO): CMV-LacZ C2C12 myoblasts
# Procedure, shortened: (§1)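 Dose-response runs at 0.5–40 μM (0.5, 1, 5, 10, 20, 40 μM; N=2 per point) used a clonal C2C12 line carrying CMV-LacZ. Cells were assayed as myoblasts or as differentiated myotubes, and β-galactosidase levels were read with the FDG fluorogenic substrate.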
# [4] = test system: β-galactosidase in CMV-LacZ C2C12 myotubes; assay: CMV-LacZ secondary screen in C2C12 myotubes (β-Gal stabilizing assay); conditions: for CMV-LACZ in Myotubes, value relative to DMSO: SU9516 analogs, C2C12 CMV-LacZ, N=2; for CMV-LACZ in Myotubes, signal relative to DMSO: C2C12 CMV-LacZ myotubes, fold relative to DMSO
# Procedure, shortened: as §1
compound,measurement,setting,value
CN1CCN(c2ccccc2/C=C2/C(=O)Nc3ccccc32)CC1 [MLS001182377-01],"Burkin Assay in Myoblasts, value relative to DMSO",[1]; 0.5 uM,1.179
same,"Burkin Assay in Myoblasts, value relative to DMSO",[1]; 1 uM,1.045
same,"Burkin Assay in Myoblasts, value relative to DMSO",[1]; 5 uM,0.915
same,"Burkin Assay in Myoblasts, value relative to DMSO",[1]; 10 uM,0.9061
same,"Burkin Assay in Myoblasts, value relative to DMSO",[1]; 20 uM,0.8744
same,"Burkin Assay in Myoblasts, value relative to DMSO",[1]; 40 uM,0.6176
same,"Burkin Assay in Myotubes, value relative to DMSO",[2]; 0.5 uM,1.015
same,"Burkin Assay in Myotubes, value relative to DMSO",[2]; 1 uM,1.021
same,"Burkin Assay in Myotubes, value relative to DMSO",[2]; 5 uM,0.9372
same,"Burkin Assay in Myotubes, value relative to DMSO",[2]; 10 uM,0.9389
same,"Burkin Assay in Myotubes, value relative to DMSO",[2]; 20 uM,0.8654
same,"Burkin Assay in Myotubes, value relative to DMSO",[2]; 40 uM,0.9149
same,"CMV-LACZ in Myoblasts, value relative to DMSO",[3]; 0.5 uM,1.1229
same,"CMV-LACZ in Myoblasts, value relative to DMSO",[3]; 1 uM,1.1646
same,"CMV-LACZ in Myoblasts, value relative to DMSO",[3]; 5 uM,0.9113
same,"CMV-LACZ in Myoblasts, value relative to DMSO",[3]; 10 uM,0.9294
same,"CMV-LACZ in Myoblasts, value relative to DMSO",[3]; 20 uM,0.4441
same,"CMV-LACZ in Myoblasts, value relative to DMSO",[3]; 40 uM,0.4170
same,"CMV-LACZ in Myotubes, value relative to DMSO",[4]; 0.5 uM,0.7762
same,"CMV-LACZ in Myotubes, value relative to DMSO",[4]; 1 uM,0.8105
same,"CMV-LACZ in Myotubes, value relative to DMSO",[4]; 5 uM,0.9608
same,"CMV-LACZ in Myotubes, value relative to DMSO",[4]; 10 uM,1.0589
same,"CMV-LACZ in Myotubes, value relative to DMSO",[4]; 20 uM,1.0305
same,"CMV-LACZ in Myotubes, value relative to DMSO",[4]; 40 uM,1.0263
COc1cc([N+](=O)[O-])cc(/C=N/NC(=O)C(O)(c2ccccc2)c2ccccc2)c1O [MLS001183575-01],"Burkin Assay in Myoblasts, signal relative to DMSO",[1]; 0.5 uM,0.9644
same,"Burkin Assay in Myoblasts, signal relative to DMSO",[1]; 1 uM,1.009
same,"Burkin Assay in Myoblasts, signal relative to DMSO",[1]; 5 uM,0.8981
same,"Burkin Assay in Myoblasts, signal relative to DMSO",[1]; 10 uM,0.7946
same,"Burkin Assay in Myoblasts, signal relative to DMSO",[1]; 20 uM,0.6916
same,"Burkin Assay in Myoblasts, signal relative to DMSO",[1]; 40 uM,0.5338
same,"Burkin Assay in Myotubes, α7 integrin LacZ reporter signal relative to DMSO",[2]; 0.5 uM,1.0887
same,"Burkin Assay in Myotubes, α7 integrin LacZ reporter signal relative to DMSO",[2]; 1 uM,0.9681
same,"Burkin Assay in Myotubes, α7 integrin LacZ reporter signal relative to DMSO",[2]; 5 uM,0.8172
same,"Burkin Assay in Myotubes, α7 integrin LacZ reporter signal relative to DMSO",[2]; 10 uM,0.7938
same,"Burkin Assay in Myotubes, α7 integrin LacZ reporter signal relative to DMSO",[2]; 20 uM,0.7378
same,"Burkin Assay in Myotubes, α7 integrin LacZ reporter signal relative to DMSO",[2]; 40 uM,0.6868
same,CMV-LACZ in Myoblasts (β-galactosidase activity relative to DMSO),[3]; 0.5 uM,1.1603
same,CMV-LACZ in Myoblasts (β-galactosidase activity relative to DMSO),[3]; 1 uM,1.2440
same,CMV-LACZ in Myoblasts (β-galactosidase activity relative to DMSO),[3]; 5 uM,0.8972
same,CMV-LACZ in Myoblasts (β-galactosidase activity relative to DMSO),[3]; 10 uM,0.7762
same,CMV-LACZ in Myoblasts (β-galactosidase activity relative to DMSO),[3]; 20 uM,1.2825
same,CMV-LACZ in Myoblasts (β-galactosidase activity relative to DMSO),[3]; 40 uM,0.8856
same,"CMV-LACZ in Myotubes, signal relative to DMSO",[4]; 0.5 uM,0.9648
same,"CMV-LACZ in Myotubes, signal relative to DMSO",[4]; 1 uM,0.8657
same,"CMV-LACZ in Myotubes, signal relative to DMSO",[4]; 5 uM,0.7726
same,"CMV-LACZ in Myotubes, signal relative to DMSO",[4]; 10 uM,0.9136
same,"CMV-LACZ in Myotubes, signal relative to DMSO",[4]; 20 uM,0.8230
same,"CMV-LACZ in Myotubes, signal relative to DMSO",[4]; 40 uM,1.1230
O=C1Nc2ccccc2/C1=C/c1ccc([N+](=O)[O-])cc1 [MLS001194544-01],"Burkin Assay in Myoblasts, value relative to DMSO",[1]; 0.5 uM,1.044
same,"Burkin Assay in Myoblasts, value relative to DMSO",[1]; 1 uM,0.9906
same,"Burkin Assay in Myoblasts, value relative to DMSO",[1]; 5 uM,1.02
same,"Burkin Assay in Myoblasts, value relative to DMSO",[1]; 10 uM,1.145
same,"Burkin Assay in Myoblasts, value relative to DMSO",[1]; 20 uM,0.7914
same,"Burkin Assay in Myoblasts, value relative to DMSO",[1]; 40 uM,0.5028
same,"Burkin Assay in Myotubes, value relative to DMSO",[2]; 0.5 uM,0.9611
same,"Burkin Assay in Myotubes, value relative to DMSO",[2]; 1 uM,0.9995
same,"Burkin Assay in Myotubes, value relative to DMSO",[2]; 5 uM,1.002
same,"Burkin Assay in Myotubes, value relative to DMSO",[2]; 10 uM,1.07
same,"Burkin Assay in Myotubes, value relative to DMSO",[2]; 20 uM,0.754
same,"Burkin Assay in Myotubes, value relative to DMSO",[2]; 40 uM,0.7611
same,"CMV-LACZ in Myoblasts, value relative to DMSO",[3]; 0.5 uM,0.8975
same,"CMV-LACZ in Myoblasts, value relative to DMSO",[3]; 1 uM,0.7213
same,"CMV-LACZ in Myoblasts, value relative to DMSO",[3]; 5 uM,0.9068
same,"CMV-LACZ in Myoblasts, value relative to DMSO",[3]; 10 uM,1.0363
same,"CMV-LACZ in Myoblasts, value relative to DMSO",[3]; 20 uM,0.8983
same,"CMV-LACZ in Myoblasts, value relative to DMSO",[3]; 40 uM,0.7383
same,"CMV-LACZ in Myotubes, value relative to DMSO",[4]; 0.5 uM,1.0764
same,"CMV-LACZ in Myotubes, value relative to DMSO",[4]; 1 uM,1.1318
same,"CMV-LACZ in Myotubes, value relative to DMSO",[4]; 5 uM,0.9683
same,"CMV-LACZ in Myotubes, value relative to DMSO",[4]; 10 uM,0.9739
same,"CMV-LACZ in Myotubes, value relative to DMSO",[4]; 20 uM,0.9800
same,"CMV-LACZ in Myotubes, value relative to DMSO",[4]; 40 uM,0.9400
